Test system: yeast genes (level of expressed mRNA)
Assay: DNA chip analysis of expressed mRNA of yeast genes after 2 h culture with a toxic chemical substance
Assay type: cell-based, Saccharomyces cerevisiae S288C
How it was run: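 Values are treated-to-control fluorescence ratios from a whole-yeast-genome DNA chip (65° C, over 12 h hybridization) using Cy3/Cy5-labelled cDNA from mRNA. Log-phase S288C cells in YPD at 25° C were exposed 2 h to a toxicant at sublethal, growth-inhibiting concentration.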

manganese ethylenebis(dithiocarbamate) [(8)]
1.9: The level of expressed mRNA in the presence of chemical substance/The level of expressed mRNA in the absence of chemical substance (yeast gene YOR288C)
0.9: The level of expressed mRNA in the presence of chemical substance/ (yeast gene YNL092W, ratio to control without chemical substance, 2 h culture) | The level of expressed mRNA in the presence of chemical substance/in the absence of chemical substance (yeast gene YNR072W) | The level of expressed mRNA in the presence of chemical substance/in the absence of chemical substance (yeast gene YOR180C) | The level of expressed mRNA in the presence of chemical substance/ (yeast gene YOR197W, ratio to control without chemical) | The level of expressed mRNA in the presence of chemical substance/ (yeast gene YPR023C, ratio to control without chemical)
3.7: The level of expressed mRNA in the presence of chemical substance/ (yeast gene YOL150C, ratio to control without chemical substance, 2 h culture)
1.6: The level of expressed mRNA in the presence of chemical substance/ (yeast gene YOL071W, ratio to control without chemical) | The level of expressed mRNA in the presence of chemical substance/ (yeast gene YOL162W, ratio to control without chemical) | The level of expressed mRNA in the presence of chemical substance/The level of expressed mRNA in the absence of chemical substance (yeast gene YPR108W)
2.6: The level of expressed mRNA in the presence of chemical substance/The level of expressed mRNA in the absence of chemical substance (yeast gene YOR261C)
1.5: The level of expressed mRNA in the presence of chemical substance/ (yeast gene YOL032W, ratio to control without chemical)
1.4: The level of expressed mRNA in the presence of chemical substance/The level of expressed mRNA in the absence of chemical substance (yeast gene YNR069C) | The level of expressed mRNA in the presence of chemical substance/The level of expressed mRNA in the absence of chemical substance (yeast gene YOR036W) | The level of expressed mRNA in the presence of chemical substance/The level of expressed mRNA in the absence of chemical substance (yeast gene YOR185C) | The level of expressed mRNA in the presence of chemical substance/ (yeast gene YPR151C, ratio to control without chemical)
0.6: The level of expressed mRNA in the presence of chemical substance/ (yeast gene YNL074C, ratio to control without chemical substance, 2 h culture)
0.7: The level of expressed mRNA in the presence of chemical substance/ (yeast gene YNL305C, ratio to control without chemical) | The level of expressed mRNA in the presence of chemical substance/The level of expressed mRNA in the absence of chemical substance (yeast gene YOR181W) | The level of expressed mRNA in the presence of chemical substance/ (yeast gene YPL222W, ratio to control without chemical) | The level of expressed mRNA in the presence of chemical substance/in the absence of chemical substance (yeast gene YPR184W)
1.2: The level of expressed mRNA in the presence of chemical substance/ (yeast gene YNL156C, ratio to control without chemical substance, 2 h culture) | The level of expressed mRNA in the presence of chemical substance/ (yeast gene YNL281W, ratio to control without chemical) | The level of expressed mRNA in the presence of chemical substance/The level of expressed mRNA in the absence of chemical substance (yeast gene YOR132W) | The level of expressed mRNA in the presence of chemical substance/The level of expressed mRNA in the absence of chemical substance (yeast gene YOR157C) | The level of expressed mRNA in the presence of chemical substance/ (yeast gene YPL196W, ratio to control without chemical)
1.0: The level of expressed mRNA in the presence of chemical substance/The level of expressed mRNA in the absence of chemical substance (yeast gene YOL013C) | The level of expressed mRNA in the presence of chemical substance/in the absence of chemical substance (yeast gene YOL096C) | The level of expressed mRNA in the presence of chemical substance/The level of expressed mRNA in the absence of chemical substance (yeast gene YOL164W) | The level of expressed mRNA in the presence of chemical substance/The level of expressed mRNA in the absence of chemical substance (yeast gene YOR117W) | The level of expressed mRNA in the presence of chemical substance/The level of expressed mRNA in the absence of chemical substance (yeast gene YOR383C) | The level of expressed mRNA in the presence of chemical substance/ (yeast gene YPL087W, ratio to control without chemical) | The level of expressed mRNA in the presence of chemical substance/ (yeast gene YPL206C, ratio to control without chemical) | The level of expressed mRNA in the presence of chemical substance/The level of expressed mRNA in the absence of chemical substance (yeast gene YPR103W)
1.1: The level of expressed mRNA in the presence of chemical substance/The level of expressed mRNA in the absence of chemical substance (yeast gene YNR010W) | The level of expressed mRNA in the presence of chemical substance/ (yeast gene YNR068C, ratio to control without chemical) | The level of expressed mRNA in the presence of chemical substance/ (yeast gene YOL047C, ratio to control without chemical) | The level of expressed mRNA in the presence of chemical substance/ (yeast gene YOL082W, ratio to control without chemical) | The level of expressed mRNA in the presence of chemical substance/ (yeast gene YOL117W, ratio to control without chemical) | The level of expressed mRNA in the presence of chemical substance/ (yeast gene YOL131W, ratio to control without chemical) | The level of expressed mRNA in the presence of chemical substance/ (yeast gene YOR019W, ratio to control without chemical) | The level of expressed mRNA in the presence of chemical substance/The level of expressed mRNA in the absence of chemical substance (yeast gene YOR259C) | The level of expressed mRNA in the presence of chemical substance/in the absence of chemical substance (yeast gene YOR363C) | The level of expressed mRNA in the presence of chemical substance/The level of expressed mRNA in the absence of chemical substance (yeast gene YPL109C) | The level of expressed mRNA in the presence of chemical substance/The level of expressed mRNA in the absence of chemical substance (yeast gene YPL149W)
2.1: The level of expressed mRNA in the presence of chemical substance/The level of expressed mRNA in the absence of chemical substance (yeast gene YNL333W)
1.3: The level of expressed mRNA in the presence of chemical substance/ (yeast gene YNL234W, ratio to control without chemical substance, 2 h culture) | The level of expressed mRNA in the presence of chemical substance/ (yeast gene YOL083W, ratio to control without chemical) | The level of expressed mRNA in the presence of chemical substance/The level of expressed mRNA in the absence of chemical substance (yeast gene YOR124C) | The level of expressed mRNA in the presence of chemical substance/The level of expressed mRNA in the absence of chemical substance (yeast gene YOR198C)
0.8: The level of expressed mRNA in the presence of chemical substance/The level of expressed mRNA in the absence of chemical substance (yeast gene YNL093W) | The level of expressed mRNA in the presence of chemical substance/ (yeast gene YNL115C, ratio to control without chemical substance, 2 h culture) | The level of expressed mRNA in the presence of chemical substance/ (yeast gene YOL036W, ratio to control without chemical) | The level of expressed mRNA in the presence of chemical substance/The level of expressed mRNA in the absence of chemical substance (yeast gene YOR355W) | The level of expressed mRNA in the presence of chemical substance/The level of expressed mRNA in the absence of chemical substance (yeast gene YPL089C) | The level of expressed mRNA in the presence of chemical substance/The level of expressed mRNA in the absence of chemical substance (yeast gene YPL154C)

From patent US20050112573A1, “Method of detecting toxic substance” (priority 2001, published 2005)
